Test results published in ChEMBL document CHEMBL5370554, “Discovery of a first-in-class Aurora A covalent inhibitor for the treatment of triple negative breast cancer” (Eur J Med Chem, 2023).
pIC50: −log10 of the molar value. Activity calls are given as the source filed them. The rule behind the calls is not given here.

Legend:
Aurora kinase A [1] = target: T1, Aurora kinase A (Homo sapiens, UniProt O14965); test: Inhibition of recombinant human Aurora A (1 to 403 residues) expressed in Escherichia coli using STK-substrate 2-biotin as substrate incubated for 15 mins in presence of 7.2uM ATP by HTRF assay
T1 sequence (O14965 whole entry): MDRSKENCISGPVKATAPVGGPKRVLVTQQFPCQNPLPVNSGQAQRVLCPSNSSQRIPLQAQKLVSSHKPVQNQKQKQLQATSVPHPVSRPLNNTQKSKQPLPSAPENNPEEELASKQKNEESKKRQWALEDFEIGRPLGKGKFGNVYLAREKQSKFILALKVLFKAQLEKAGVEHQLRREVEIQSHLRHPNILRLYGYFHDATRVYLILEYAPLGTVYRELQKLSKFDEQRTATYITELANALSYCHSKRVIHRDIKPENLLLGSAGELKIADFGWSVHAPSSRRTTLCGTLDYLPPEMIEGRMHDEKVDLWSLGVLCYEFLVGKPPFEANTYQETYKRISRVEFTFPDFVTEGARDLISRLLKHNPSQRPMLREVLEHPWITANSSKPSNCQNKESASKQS

MDA-MB-231 [2] = test: Induction of apoptosis in human MDA-MB-231 cells assessed as late apoptotic cells at 2.5 uM incubated for 24 hrs by Annexin V-FITC staining based flow cytometry (Rvb= 6.90%); assay type: functional
Aurora kinase A [3] = target: T1, Aurora kinase A; test: Inhibition of recombinant human Aurora A (1 to 403 residues) expressed in Escherichia coli using FAM-labeled peptide as substrate preincubated for 10 mins followed by substrate addition and measured after 20 mins in presence of ATP by HTRF assay
[4] = target: T2, Aurora kinase A (Homo sapiens) (UniProt O14965); test: Inhibition of Aurora A in human MDA-MB-231 cells assessed as decrease in Aurora A phosphorylation at Thr288 residue at 0.2 to 0.6 uM incubated for 1 hrs by Western blot analysis; assay type: cell-based; settings: dose 0.2-0.6 µM
T2 sequence (whole entry): T1 sequence (O14965 whole entry)

Aurora kinase A [5] = target: T1, Aurora kinase A; test: Inhibition of recombinant human Aurora A (1 to 403 residues) expressed in Escherichia coli using STK-substrate 2-biotin as substrate incubated for 40 mins in presence of 0.48 uM ATP by HTRF assay
Aurora kinase A [6] = target: T1, Aurora kinase A; test: Inhibition of recombinant human Aurora A (1 to 403 residues) expressed in Escherichia coli using STK-substrate 2-biotin as substrate incubated for 15 mins in presence of 2.4uM ATP by HTRF assay
MDA-MB-231 [7] = test: Induction of apoptosis in human MDA-MB-231 cells assessed as early apoptotic cells at 1.25 uM incubated for 24 hrs by Annexin V-FITC staining based flow cytometry (Rvb= 3.3%); assay type: functional
Aurora kinase A [8] = target: T1, Aurora kinase A; test: Inhibition of recombinant human Aurora A (1 to 403 residues) expressed in Escherichia coli using STK-substrate 2-biotin as substrate incubated for 40 mins in presence of 24 uM ATP by HTRF assay
MDA-MB-231 [9] = test: Induction of apoptosis in human MDA-MB-231 cells assessed as necrotic cells at 5 uM incubated for 24 hrs by Annexin V-FITC staining based flow cytometry (Rvb= 1.67%); assay type: functional
MDA-MB-231 [10] = test: Inhibition of cell migration in human MDA-MB-231 cells at 1.25 uM incubated for 18 hrs by Scratch assay (Rvb= 37.2%); assay type: functional
MDA-MB-231 [11] = test: Induction of apoptosis in human MDA-MB-231 cells assessed as necrotic cells at 2.5 uM incubated for 24 hrs by Annexin V-FITC staining based flow cytometry (Rvb= 1.67%); assay type: functional
[12] = Toxicity in BALB/c nude mouse xenografted with human MDA-MB-231 cells assessed as body weight change at 15 mg/kg,ip every 2days for 20 days; assay type: organism-based; settings: in vivo, 480 h, time 20 day
MDA-MB-231 [13] = test: Induction of cell cycle arrest in human MDA-MB-231 cells assessed as accumulation at G2/M phase at 1.25 to 5 uM incubated for 24 hrs by PI staining based flow cytometry; assay type: functional; settings: dose 1.25-5 µM
[14] = Toxicity in BALB/c nude mouse xenografted with human MDA-MB-231 cells assessed as inflammatory cell infiltration in lung at 15 mg/kg,ip every 2days for 20 days by Hematoxylin and Eosin staining based microscopy; assay type: organism-based; settings: in vivo, 480 h, time 20 day
[15] = Toxicity in BALB/c nude mouse xenografted with human MDA-MB-231 cells assessed as parenchymal injury in heart at 15 mg/kg,ip every 2days for 20 days by Hematoxylin and Eosin staining based microscopy; assay type: organism-based; settings: in vivo, 480 h, time 20 day
MDA-MB-231 [16] = test: Antitumor activity against human MDA-MB-231 cells xenografted in BALB/c nude mouse assessed as tumor growth inhibition at 15 mg/kg,ip every 2days for 20 days; assay type: functional; settings: MDA-MB-231, 480 h, time 20 day, read-out: TGI
[17] = target: Aurora kinase B (Homo sapiens) (UniProt Q96GD4); test: Inhibition of Aurora B in human MDA-MB-231 cells assessed as effect on Aurora B phosphorylation at 0.2 to 0.6 uM incubated for 1 hrs by Western blot analysis; assay type: cell-based; settings: dose 0.2-0.6 µM
[18] = Toxicity in BALB/c nude mouse xenografted with human MDA-MB-231 cells assessed as parenchymal injury in lung at 15 mg/kg,ip every 2days for 20 days by Hematoxylin and Eosin staining based microscopy; assay type: organism-based; settings: in vivo, 480 h, time 20 day
Mus musculus = test: In vivo inhibition of Aurora signalling pathway in human MDA-MB-231 cells xenografted in BALB/c nude mouse assessed as decrease in Aurora B phosphorylation at Thr232 residue in tumor at 15 mg/kg,ip every 2days for 20 days by Western blot analysis; assay type: functional, organism-based; settings: time 20.0 day
A549 = test: Antiproliferative activity against human A549 cells assessed as inhibition of cell proliferation incubated for 48 hrs by CCK-8 assay; assay type: functional, cell-based; settings: A549, 48 h
Aurora kinase A [19] = target: T1, Aurora kinase A; test: Inhibition of recombinant human Aurora A (1 to 403 residues) expressed in Escherichia coli using STK-substrate 2-biotin as substrate incubated for 40 mins in presence of 2.4uM ATP by HTRF assay
Aurora kinase A [20] = target: T1, Aurora kinase A; test: Inhibition of recombinant human Aurora A (1 to 403 residues) expressed in Escherichia coli using STK-substrate 2-biotin as substrate incubated for 60 mins in presence of 2.4uM ATP by HTRF assay
[21] = target: T2, Aurora kinase A (Homo sapiens); test: Covalent binding affinity to recombinant human Aurora A (1 to 403 residues) expressed in Escherichia coli assessed as dissociation rate constant by surface plasmon resonance analysis
[22] = Toxicity in BALB/c nude mouse xenografted with human MDA-MB-231 cells assessed as inflammatory cell infiltration in spleen at 15 mg/kg,ip every 2days for 20 days by Hematoxylin and Eosin staining based microscopy; assay type: organism-based; settings: in vivo, 480 h, time 20 day
[23] = target: T2, Aurora kinase A (Homo sapiens); test: Covalent binding affinity to recombinant human Aurora A (1 to 403 residues) expressed in Escherichia coli assessed as covalent adduct formation at Cys290 residue at 100 uM incubated for 4 hrs by UPLC-MS/MS analysis
MDA-MB-231 [24] = test: Induction of cell cycle arrest in human MDA-MB-231 cells assessed as accumulation at G2/M phase at 5 uM incubated for 24 hrs by PI staining based flow cytometry (Rvb=14.0%); assay type: functional

Sequence of Aurora kinase B (Homo sapiens) (Q96GD4 whole entry): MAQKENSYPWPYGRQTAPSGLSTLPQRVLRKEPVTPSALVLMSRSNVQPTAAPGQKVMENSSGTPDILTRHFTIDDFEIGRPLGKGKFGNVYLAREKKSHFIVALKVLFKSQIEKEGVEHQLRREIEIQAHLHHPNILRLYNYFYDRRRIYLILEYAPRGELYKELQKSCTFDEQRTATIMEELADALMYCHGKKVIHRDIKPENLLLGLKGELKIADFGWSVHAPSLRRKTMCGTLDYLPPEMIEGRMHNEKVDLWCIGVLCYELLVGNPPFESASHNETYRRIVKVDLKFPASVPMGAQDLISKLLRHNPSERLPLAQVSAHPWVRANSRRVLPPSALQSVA

In the case of `C=CC(=O)Nc1ccc(-c2nc(Nc3cc(C)[nH]n3)c3ccc(N4CCN(C)CC4)cc3n2)cc1`, the pIC50 (Aurora kinase A [1]) was 8.36, the Activity (MDA-MB-231 [2]) was 21% and the pIC50 (Aurora kinase A [3]) was 8.77. The inhibition [4] was “Dose-Dependent Effect”, the pIC50 (Aurora kinase A [5]) was 8.81 and the pIC50 (Aurora kinase A [6]) was 8.40. It also gave an Activity (MDA-MB-231 [7]) of 10.5%, a pIC50 (Aurora kinase A [8]) of 8.08 and an Activity (MDA-MB-231 [9]) of 0.27%. The inhibition at 1.25 µM (MDA-MB-231 [10]) was 3.6%, the Activity (MDA-MB-231 [11]) was 1.14% and the Activity [12] was “Non-Toxic”. The Activity (MDA-MB-231 [13]) was “Dose-Dependent Effect”, the Activity [14] was “Non-Toxic” and the Activity [15] was “Non-Toxic”. The inhibition in vivo at 15 mg/kg (MDA-MB-231 [16]) was 32.3%, the inhibition [17] was “inactive” and the Activity [18] was “Non-Toxic”. For the same compound, the inhibition (Mus musculus) was “inactive”, the pIC50 (A549) was 5.51 and the pIC50 (Aurora kinase A [19]) was 8.56. For the same compound, the pIC50 (Aurora kinase A [20]) was 8.41, the Activity [21] was “Active” and the Activity [22] was “Non-Toxic”. For the same compound, the Activity [23] was “Active” and the Activity (MDA-MB-231 [24]) was 50.8%.
